Reference: patent US11576947B2, “Oral composition and method” (Kunming Lanchie Dental Hospital, LTD, priority 2019, dated 2023)
Where two headings read alike, the source gives them in different places.

Key:
[1] = Stability test in propylene glycol (Brilliant Blue color dissipation); format: physicochemical; parameters: key: ++++: no color dissipation; +++: slightly dissipation; ++: obvious dissipation; +: totally dissipated
[2] = Stability test in aqueous system (Brilliant Blue color dissipation); format: physicochemical; parameters: key: ++++: no color dissipation; +++: slightly dissipation; ++: obvious dissipation; +: totally dissipated
[3] = System stability evaluation: compatibility of ingredients with peroxide source and the system; conditions: for Effect on peroxide and system stability: summary of testing of Tables 2 and 3
[4] = hydrogen peroxide not stabilized, cited from earlier work
[5] = propylene glycol, 2.76% carbamide peroxide, 0.002% Brilliant Blue, compound amount 0.1%, 60 days, room temperature
[6] = water, 2.76% carbamide peroxide, 0.002% Brilliant Blue, compound amount 0.1%, 60 days, room temperature
[7] = propylene glycol, 2.76% carbamide peroxide, 0.002% Brilliant Blue, compound amount 15%, 60 days, room temperature
[8] = water, 2.76% carbamide peroxide, 0.002% Brilliant Blue, compound amount 15%, 60 days, room temperature
[9] = propylene glycol, 2.76% carbamide peroxide, 0.002% Brilliant Blue, compound amount 1%, 60 days, room temperature
[10] = water, 2.76% carbamide peroxide, 0.002% Brilliant Blue, compound amount 1%, 60 days, room temperature
[11] = propylene glycol, 2.76% carbamide peroxide, 0.002% Brilliant Blue, compound amount 2%, 60 days, room temperature
[12] = water, 2.76% carbamide peroxide, 0.002% Brilliant Blue, compound amount 2%, 60 days, room temperature

Q: Which “Color (color fading grade)” value [1, 5] does the source give for `CCCCCCCCCCCCCCCC[n+]1ccccc1.[Cl-]` [Hexadecylpyridinium Chloride, Hexadecylpyridinium chloride, reference compound] here?
A: The value was “++”.

Q: And the “Color (color fading grade)” value [2, 6]?
A: Its value is “+”.

Q: For `O=P(O)(O)OP(=O)(O)OP(=O)(O)O` [Sodium tripolyphosphate], which “Color (color fading grade)” value ([1]; propylene glycol, 2.76% carbamide peroxide, 0.002% Brilliant Blue, compound amount 5%, 60 days, room temperature) is on record?
A: The value was “+”.

Q: And the “Compatibility with the system (cationic biocide and peroxide source)” value (from here on “Compatibility with the system”) [3]?
A: Its value is “not compatible”.

Q: With Natural calcium carbonate as the compound, how does the “Color (color fading grade)” value [1, 7] read?
A: Its value is “+”.

Q: And the “Compatibility with the system” value [3]?
A: Its value is “not compatible”.

Q: And the “Color (color fading grade)” value [2, 8]?
A: Its value is “+”.

Q: With Sucrose fatty acid ester as the compound, how does the “Color (color fading grade)” value [1, 9] read?
A: The value was “+”.

Q: What about the “Color (color fading grade)” value [2, 10] of the same compound?
A: The value was “+”.

Q: Which “Color (color fading grade)” value [1, 7] does the source give for `O=C([O-])[O-].[Ca+2]` [Precipitate calcium carbonate] here?
A: The value was “+”.

Q: And the “Compatibility with the system” value [3]?
A: The value was “not compatible”.

Q: And the “Effect on peroxide and system stability” value [3]?
A: The value was “activate the peroxide and make the system unstable”.

Q: And the “Color (color fading grade)” value [2, 8]?
A: Its value is “+”.

Q: What does the source list for `CC1CCC(C(C)C)C(O)C1` (centres unmarked) [Menthol]?
A: Color (color fading grade) [1, 5]: +++; Compatibility with the system (cationic biocide and peroxide source) [3]: compatible; Color (color fading grade) [2, 6]: +++

Q: Which “Color (color fading grade)” value [1] does the source give for `O=P([O-])([O-])OP(=O)([O-])[O-].[Na+].[Na+].[Na+].[Na+]` [Tetrasodium pyrophosphate] here?
A: The value was “+”.

Q: And the “Compatibility with the system” value [3]?
A: Its value is “not compatible”.

Q: What about the “Color (color fading grade)” value [2] of the same compound?
A: Its value is “+”.

Q: What does the source list for `OCC(O)CO` [Glycerin]?
A: Color (color fading grade) ([1]; propylene glycol, 2.76% carbamide peroxide, 0.002% Brilliant Blue, compound amount 20%, 60 days, room temperature): ++; Color (color fading grade) ([2]; water, 2.76% carbamide peroxide, 0.002% Brilliant Blue, compound amount 20%, 60 days, room temperature): +

Q: For `[F-].[Na+]` [Sodium fluoride], which “Color (color fading grade)” value [1, 5] is on record?
A: Its value is “+++”.

Q: And the “Color (color fading grade)” value [2, 6]?
A: The value was “++”.

Q: With Fatty Alcohol Polyoxyethylene Ether 9 as the compound, how does the “Color (color fading grade)” value [1, 11] read?
A: The value was “+++”.

Q: And the “Compatibility with the system” value [3]?
A: The value was “compatible”.

Q: And the “Color (color fading grade)” value [2, 12]?
A: Its value is “+++”.

Q: Which “Oxygen lost % (24 hr, 100 C.)” value ([4]; metal ion added 0.01 ppm) does the source give for `[Cu+2]` [Cu(II)] here?
A: Its value is 24%.

Q: With `O=P([O-])(O)OP(=O)([O-])O.[Na+].[Na+]` [Sodium acid pyrophosphate] as the compound, how does the “Color (color fading grade)” value [1, 9] read?
A: The value was “++”.

Q: What about the “Color (color fading grade)” value [2, 10] of the same compound?
A: The value was “++”.

Q: For `[Al+3]` [Al (III)], which “Oxygen lost % (24 hr, 100 C.)” value ([4]; metal ion added 10 ppm) is on record?
A: Its value is 2%.

Q: For `CCCCCCCCCC[N+](C)(C)CCCCCCCCCC.O=C1CC[C@@H](C(=O)[O-])N1` [PODA, Proline, 5-oxo-, ion(1-), N-decyl-N,N-dimethyl-1-decanaminium (1:1)], which “Color (color fading grade)” value [1, 5] is on record?
A: The value was “++”.

Q: What about the “Color (color fading grade)” value [2, 6] of the same compound?
A: Its value is “+”.

Q: With `O=C([O-])CN(CCN(CC(=O)[O-])CC(=O)O)CC(=O)O.[Na+].[Na+]` [Disodium EDTA] as the compound, how does the “Color (color fading grade)” value [1, 5] read?
A: The value was “+++”.

Q: And the “Color (color fading grade)” value [2, 6]?
A: Its value is “+++”.

Q: With `[Zn+2]` [Zn(II)] as the compound, how does the “Oxygen lost % (24 hr, 100 C.)” value ([4]; metal ion added 10 ppm) read?
A: The value was 10%.

Q: Which “Color (color fading grade)” value [1] does the source give for `O=P([O-])([O-])OP(=O)([O-])[O-].[Ca+2].[Ca+2]` [Calcium pyrophosphate] here?
A: The value was “+”.

Q: And the “Color (color fading grade)” value [2]?
A: The value was “+”.

Q: What does the source list for Lauryl glucoside?
A: Color (color fading grade) [1, 11]: +; Color (color fading grade) [2, 12]: +

Q: Which “Color (color fading grade)” value [1] does the source give for `O=C1NS(=O)(=O)c2ccccc21.[Na]` [Sodium saccharin] here?
A: Its value is “+++”.

Q: And the “Compatibility with the system” value [3]?
A: Its value is “compatible”.

Q: And the “Color (color fading grade)” value [2]?
A: The value was “++”.

Q: What does the source list for `OC[C@@H](O)[C@@H](O)[C@H](O)[C@@H](O)CO` [Sorbitol]?
A: Color (color fading grade) ([1]; propylene glycol, 2.76% carbamide peroxide, 0.002% Brilliant Blue, compound amount 60%, 60 days, room temperature): +; Color (color fading grade) ([2]; water, 2.76% carbamide peroxide, 0.002% Brilliant Blue, compound amount 60%, 60 days, room temperature): +

Q: Which “Color (color fading grade)” value [1, 9] does the source give for `CCCCCCCCCCCCOS(=O)(=O)[O-].[Na+]` [Sodium Dodecyl Sulfate] here?
A: The value was “+”.

Q: What about the “Compatibility with the system” value [3] of the same compound?
A: The value was “incompatible”.

Q: And the “Effect on peroxide and system stability” value [3]?
A: The value was “activate the peroxide and make the system unstable”.

Q: And the “Color (color fading grade)” value [2, 10]?
A: The value was “+”.

Q: For `[Fe+3]` [Fe(III)], which “Oxygen lost % (24 hr, 100 C.)” value ([4]; metal ion added 10 ppm) is on record?
A: Its value is 15%.

Q: Which “Color (color fading grade)” value [1, 5] does the source give for `N=C(NCCCCCCNC(=N)NC(=N)Nc1ccc(Cl)cc1)NC(=N)Nc1ccc(Cl)cc1` [Chlorhexydine, reference compound] here?
A: Its value is “++”.

Q: And the “Color (color fading grade)” value [2, 6]?
A: Its value is “+”.

Q: Which “Color (color fading grade)” value ([1]; propylene glycol, 2.76% carbamide peroxide, 0.002% Brilliant Blue, compound amount 0.5%, 60 days, room temperature) does the source give for `OC[C@H]1O[C@H](O[C@]2(CCl)O[C@H](CCl)[C@@H](O)[C@@H]2O)[C@H](O)[C@@H](O)[C@H]1Cl` [Sucralose] here?
A: Its value is “+++”.

Q: And the “Compatibility with the system” value [3]?
A: The value was “compatible”.

Q: What about the “Color (color fading grade)” value ([2]; water, 2.76% carbamide peroxide, 0.002% Brilliant Blue, compound amount 0.5%, 60 days, room temperature) of the same compound?
A: Its value is “++”.

Q: For Cocamidopropyl betaine, which “Color (color fading grade)” value [1, 11] is on record?
A: Its value is “++++”.

Q: What about the “Color (color fading grade)” value [2, 12] of the same compound?
A: The value was “++++”.
